Tests used:
S. epidermidis = assay: Bacterial kinetic growth inhibition analysis, S. epidermidis; assay type: cell-based, Staphylococcus epidermidis
[1] = test system: E. coli bacteria (ATCC 25922); assay: Bacterial kinetic growth inhibition analysis, E. coli; assay type: cell-based, Escherichia coli
Protocol: Each of the peptides was diluted by serial 2-fold dilutions in M9 minimal media in Corning (3879) 96-well plates (Sigma-Aldrich, Israel). E. coli bacteria (ATCC 25922) were grown overnight in M9 minimal media and diluted 1,000-fold in M9 media and grown for 5 h at 37°C. In Corning (3596) 96-well plates, 75-μl volumes of the serial 2-fold dilutions of each test compound were added to 75 μl of growth medium containing bacteria (5 × 10̂^6 CFU/ml). Bacteria and test compounds were incubated overnight at 37°C, and kinetic growth inhibition was determined by measurements of optical density at 600 nm using a Biotek Synergy HT microplate reader.

[2] = test system: Candida albicans (SC5341); assay: FITC uptake assay (membrane permeabilization); assay type: cell-based; details: C. albicans 2 × 10^7 cells per ml, 10 mM sodium phosphate buffer pH 7.4, 250 μg/ml peptide, 6 h at 30°C; no-peptide control 1%
Protocol: This assay was adapted from a previously reported method ([53]). Candida albicans (SC5341) cells were suspended (2 × 10^7 cells per ml) in 10 mM sodium phosphate buffer (pH 7.4) and treated with each of the peptides for 6 h at 30°C. Samples were then incubated with 6 μg/ml FITC (the stock solution is 10 mg/ml in acetone) plus 10 mM sodium phosphate buffer at 30°C for 30 min. A 10-μl volume of each sample was plated on an individual glass slide, and the slides were then washed with 10 mM sodium phosphate buffer thrice and examined using an Eclipse E600 fluorescence microscope (Nikon, Japan). The results presented are representative of three independent experiments.

[3] = Self-assembly observed by transmission electron microscopy; assay type: physicochemical; details: 1 mg/ml in water, heated 50 min at 90°C, cooled gradually to 25°C overnight; negative stain TEM
Protocol: Lyophilized powders of each of the peptides (Genscript Biotech, USA) were dissolved in ultrapure water (BioInd, Israel) to a concentration of 1 mg/ml and heated for 50 min at 90°C, allowing the peptides to reach the monomeric state, and were then allowed to cool gradually to 25°C overnight. This treatment facilitated the self-assembly and nanostructure formation of L7F but not dhvar2.
TEM imaging was performed by applying 10-μl samples to 400-mesh copper grids covered by a carbon-stabilized Formvar film (SPI, West Chester, PA, USA). The samples were allowed to adsorb for 2 min before excess fluid was blotted off. Negative staining was then achieved by depositing 10 μl of 2% uranyl acetate on the grid for 2 min before blotting off excess fluid. Micrographs were obtained using a Tecnai 12 electron microscope (FEI, Tokyo, Japan) operating at 120 kV.

[4] = Lipid/PDA vesicle fluorescent chromatic response, DOPC-containing model membrane; details: DOPC/DMPG/ErgS/PDA SUVs; peptide 1 mg/ml stock, Tris-base buffer pH 8.0, 27°C, %FCR
Protocol: (§1) Vesicles containing the diacetylene monomer 10,12-tricosadiynoic acid (TRCDA) and the lipid and ergosterol components DOPC/DMPG/ErgS/PDA and DOPE/DMPG/ErgS/PDA (1:0.6:0.4:3) were dissolved in chloroform/ethanol (1:1) and dried together in vacuo to reach a constant weight, followed by addition of deionized water to reach a final concentration of 1 mM, and were subsequently subjected to probe sonication at 40 W at 70°C for 3 min. The vesicle solution was subsequently cooled at room temperature and kept at 4°C overnight. The solution was then irradiated at 254 nm for 30s, resulting in intense blue color appearance due to polymerization of the diacethylene units.
(§2) Fluorescence was measured on a Fluscan Ascent microplate reader using a 96-well microplate (Grainer), excitation at 485 nm and emission at 555 nm, and long-pass (LP) filters with normal slits. The background fluorescence from the vesicles alone was negligible. Samples were prepared for fluorescence measurements by adding 30 μl of each of the peptides at 1 mg/ml to 30 μl of lipid/PDA vesicles followed by addition of 30 μl 50 mM Tris-base buffer (pH = 8.0). The samples were incubated at 27°C during the measurements. […]

[5] = Lipid/PDA vesicle fluorescent chromatic response, DOPE-containing model membrane; details: DOPE/DMPG/ErgS/PDA SUVs; peptide 1 mg/ml stock, Tris-base buffer pH 8.0, 27°C, %FCR
Protocol: as §1, §2

[6] = kinetic growth inhibition, OD600

| Sequence | antibacterial activity, fold more active than dhvar2 (S. epidermidis; [6]) [fold] | peptide concentration that completely inhibited growth (S. epidermidis; serial 2-fold dilutions, OD600, representative of three experiments) [µg/mL] | antibacterial activity, fold more active than dhvar2 [1, 6] [fold] | peptide concentration that completely inhibited growth ([1]; serial 2-fold dilutions, 37°C, OD600, representative of three experiments) [µg/mL] | FITC positive fluorescence (membrane permeabilization) [2] [%] | self-assembly / morphology of assemblies (TEM) [3] | colorimetric response, fold lower than that to L7F [4] [fold] | fluorescent chromatic response, fold lower than that to L7F [5] [fold] |
| --- | --- | --- | --- | --- | --- | --- | --- | --- |
| KRLFKEFLFSLRKY [L7F, single-amino-acid mutation L7F of dhvar2 (…), self-assembling derivative] | 2 | 250 | 4 | 125 | 95 | long, unbranched nanoassemblies | – | – |
| KRLFKELLFSLRKY [dhvar2, well-characterized histatin 5 derivative, …, reference compound] | – | – | – | – | 95 | no ordered assemblies | 2 | 2 |
